Test results published in patent US4490370A, “Naphthylglycyl cephalosporin derivatives” (priority 1983, dated 1984).
Where two headings read alike, the source gives them in different places.

What was measured:
[1] = system: β-lactamase (organism 265A); assay: Stability to β-lactamases, 265A; assay type: biochemical; conditions: lower numbers mean greater stability
[2] = Oral absorption and blood levels in rodents; assay type: in vivo
[3] = system: Peptococcus Asaccharolyticus; assay: Susceptibility of anaerobic cocci, agar-dilution, 24 hour MIC; assay type: cell-based; conditions: Peptoniphilus asaccharolyticus, isolate 1344
Excerpt: (§1) A typical and preferred compound provided by this invention is 7-(2-naphthylglycylamido)-3-methyl-3-cephem-4-carboxylic acid, the compound of Example 3. The antibacterial activity of this compound and several others of the invention has been determined in standard in vitro agar dilution assays against a variety of gram positive microorganisms. The following Tables present typical minimum inhibitory concentrations (MIC's) in μg/ml for the compounds when evaluated against the indicated microorganisms. MIC's for several known compounds are also presented for comparison.
(§2) Susceptibility of Anaerobic Cocci
(§3) Isolates by the Agar-Dilution
(§4) Method-24 hour MIC's (μg/ml)

[4] = system: Peptostreptococcus anaerobius; assay: as above; assay type: cell-based
Excerpt: as §1, §2, §3, §4

[5] = system: P. magnus; assay: as above; assay type: cell-based; conditions: Finegoldia magna
Excerpt: as §1, §2, §3, §4

[6] = system: Peptostreptococcus intermedius; assay: as above; assay type: cell-based
Excerpt: as §1, §2, §3, §4

[7] = system: Peptococcus Constellatus; assay: as above; assay type: cell-based; conditions: Streptococcus constellatus, isolate 1468
Excerpt: as §1, §2, §3, §4

[8] = system: P. prevoti; assay: as above; assay type: cell-based; conditions: isolate 1293
Excerpt: as §1, §2, §3, §4

[9] = system: β-lactamase (organism 1313G); assay: Stability to β-lactamases, 1313G; assay type: biochemical; conditions: lower numbers mean greater stability
[10] = system: Bacteroides fragilis; assay: Susceptibility of anaerobes, agar-dilution, 24 hour MIC; assay type: cell-based
[11] = system: Klebsiella; assay: Agar dilution MIC, Klebsiella; assay type: cell-based; conditions: Klebsiella; Table I, strain X26; read-out: MIC
Excerpt: as §1

[12] = system: H. influ.; assay: Agar dilution MIC, H. influenza; assay type: cell-based; conditions: Table III, strain 102; read-out: MIC
Excerpt: (§5) The following Tables present typical minimum inhibitory concentrations (MIC's) in μg/ml for the compounds when evaluated against the indicated microorganisms.

[13] = system: Strep. PN; assay: Agar dilution MIC, Strep. PN; assay type: cell-based; conditions: Table I, strain PARK; read-out: MIC
Excerpt: as §5

[14] = system: Staph. epi; assay: Agar dilution MIC, Staph. epi; assay type: cell-based; conditions: read-out: MIC
Excerpt: as §5

[15] = system: β-lactamase (TEM); assay: Stability to β-lactamases, TEM; assay type: biochemical; conditions: lower numbers mean greater stability
[16] = system: Strep. A; assay: Agar dilution MIC, Strep. A; assay type: cell-based; conditions: Table I, strain C203; read-out: MIC
Excerpt: as §1

[17] = system: Propionibacterum acnes; assay: Susceptibility of anaerobes, agar-dilution, 24 hour MIC; assay type: cell-based
Excerpt: as §1, §2, §3, §4

[18] = system: B. Fragilis; assay: Expanded spectrum MIC, B. Fragilis; assay type: cell-based; conditions: Bacteroides fragilis, Table III, read-out: MIC
Excerpt: as §1

[19] = system: β-lactamase (organism PS185); assay: Stability to β-lactamases, PS185; assay type: biochemical; conditions: lower numbers mean greater stability
[20] = Plasma concentration after intravenous dose in rats; assay type: in vivo; conditions: rat, intravenous 20 mg/kg
Protocol: For example, when 7-(2-naphthylglycylamido)-3-methyl-3-cephem-4-carboxylic acid was administered to rats at an intravenous dose of 20 mg/kg, the plasma concentration after one hour was 18.6 μg/ml; after four hours, 14.1 μg/ml; and after twenty-four hours, the plasm level was still measured as 1.96 μg/ml.

[21] = system: β-lactamase (organism 1082E); assay: Stability to β-lactamases, 1082E; assay type: biochemical; conditions: lower numbers mean greater stability
[22] = system: Staph. aureus; assay: Agar dilution MIC, Staph. aureus; assay type: cell-based; conditions: Staphylococcus aureus, read-out: MIC
Excerpt: as §5

CC1=C(C(=O)O)N2C(=O)C(NC(=O)[C@H](N)c3ccc4ccccc4c3)C2SC1 (stereo partly drawn) [Example 3, D-7-(2-naphthylglycylamido)-3-methyl-3-cephem-4-carboxylic acid tetrahydrate]
Stability to β-lactamases [1]: 50 | blood levels compared with cefaclor and cephalexin [2]: higher and longer blood levels than cefaclor and cephalexin | oral absorption ([2]; oral): efficiently orally absorbed | MIC [3]: ≤ 0.125 µg/mL | MIC ([4]; isolate 8): ≤ 0.125 µg/mL | MIC ([4]; isolate 52): 0.25 µg/mL | MIC ([4]; isolate 1477): ≤ 0.125 µg/mL | MIC ([5]; isolate 1401): 0.25 µg/mL | MIC ([5]; isolate 1477): 0.5 µg/mL | MIC ([6]; isolate 1264): 1 µg/mL | MIC ([6]; isolate 1524): 1 µg/mL | MIC ([6]; isolate 1624): 1 µg/mL | MIC [7]: 0.25 µg/mL | MIC [8]: 0.5 µg/mL | Stability to β-lactamases [9]: 256 | MIC ([10]; isolate 200): 32 µg/mL | MIC ([10]; isolate 206): 16 µg/mL | MIC ([10]; isolate 3625): 16 µg/mL | MIC ([10]; isolate 7371A): 16 µg/mL | MIC ([10]; isolate 19671): > 64 µg/mL | MIC ([10]; isolate 19681): 16 µg/mL | MIC [11]: 2 µg/mL | MIC [12]: 32 µg/mL | MIC [13]: 0.5 µg/mL | MIC ([14]; Table I, strain 222): 0.5 µg/mL | MIC ([14]; Table I, strain EPI1): 1 µg/mL | MIC ([14]; Table II expanded spectrum, strain EPI1): 8 µg/mL | MIC ([14]; Table II, strain 219): 0.5 µg/mL | MIC ([14]; Table II, strain 269): 2 µg/mL | MIC ([14]; Table II, strain 270): 4 µg/mL | MIC ([14]; Table II, strain 285): 2 µg/mL | MIC ([14]; Table II, strain 286): 1 µg/mL | Stability to β-lactamases [15]: 3 | MIC [16]: 0.5 µg/mL | MIC ([17]; isolate 44): 4 µg/mL | MIC ([17]; isolate 79): 8 µg/mL | MIC ([17]; isolate 101): 8 µg/mL | MIC ([17]; isolate 104): 8 µg/mL | MIC ([17]; isolate 105): 4 µg/mL | MIC ([17]; isolate 5191): 0.25 µg/mL | MIC ([17]; isolate 5227): 0.25 µg/mL | MIC ([17]; isolate 5228): 8 µg/mL | MIC ([17]; isolate 5229): 8 µg/mL | MIC ([17]; isolate 5246): 8 µg/mL | MIC ([18]; strain 180-821): 2 µg/mL | MIC ([18]; strain 10668): 32 µg/mL | MIC ([18]; strain 10683): 32 µg/mL | MIC ([18]; strain 10695): 4 µg/mL | MIC ([18]; strain 10750): 16 µg/mL | MIC ([18]; strain 10774): 16 µg/mL | MIC ([18]; strain 10817): 2 µg/mL | MIC ([18]; strain 10837): 16 µg/mL | MIC ([18]; strain 107266): 16 µg/mL | MIC ([18]; strain 107268): 8 µg/mL | Stability to β-lactamases [19]: 25 | concentration at 1 h ([20]; 1 hour, read-out: plasma concentration after one hour): 18600 ng/mL | concentration at 4 h ([20]; 4 hours, read-out: plasma concentration after four hours): 14100 ng/mL | concentration at 24 h ([20]; 24 hours, read-out: plasma level after twenty-four hours): 1960 ng/mL | Stability to β-lactamases [21]: 26 | MIC ([22]; Table I, strain V41): 8 µg/mL | MIC ([22]; Table I, strain X1.1): 0.5 µg/mL | MIC ([22]; Table I, strain X400): 64 µg/mL | MIC ([22]; Table II, strain S224): 0.5 µg/mL | MIC ([22]; Table II, strain S225): 0.5 µg/mL | MIC ([22]; Table II, strain S226): 1 µg/mL | MIC ([22]; Table II, strain S227): 1 µg/mL | MIC ([22]; Table II, strain S228): 0.5 µg/mL | MIC ([22]; Table II, strain S229): 1 µg/mL | MIC ([22]; Table II, strain S230): 0.5 µg/mL | MIC ([22]; Table II, strain S231): 0.5 µg/mL | MIC ([22]; Table II, strain S234): 1 µg/mL | MIC ([22]; Table II, strain S237): 1 µg/mL | MIC ([22]; Table II, strain S238): 1 µg/mL | MIC ([22]; Table II, strain S239): 1 µg/mL | MIC ([22]; Table III expanded spectrum, strain 8725): 0.25 µg/mL | MIC ([22]; Table III, strain 8438): 0.25 µg/mL | MIC ([22]; Table III, strain 8787): 0.25 µg/mL | MIC ([22]; Table III, strain 9050): 0.5 µg/mL | MIC ([22]; Table III, strain 9136): 0.25 µg/mL | MIC ([22]; Table III, strain 9290): 1 µg/mL | MIC ([22]; Table III, strain 9767): 1 µg/mL
